Read-outs that look alike come from different tables or passages of the source.
Assays:
[1] = system: BEAS-2B cells; assay: Release of CXCL9, CXCL10 and CXCL11 from BEAS-2B cells (ELISA), inhibitors added concomitantly with stimulus; assay type: cell-based, human; conditions: Homo sapiens, 20 h
Description: (§1) Cell-free supernatants were removed 20h post-stimulation and assayed for CXCL9, CXCL10 and CXCL11 using Duoset ELISA kits (R & D Systems Europe, Abingdon, UK) according to the manufacturer’s instructions. The detection limits of these assays are 62pg/ml, 31pg/ml, and 7.8 pg/ml respectively.
It was possible that concomitant addition of stimulus and JAK inhibitors may elicit a different inhibitory profile, therefore to address this, experiments were performed. […] Experiments were then performed to determine the effects of both JAK inhibitors in human primary airway epithelial cells in order to determine whether their ability to suppress CXCR3 chemokine release from BEAS-2B cells was reflective of their efficacy in primary cells.
Media was harvested and the concentrations of CXCL9 (panels a and d), CXCL10 (panels b and e) and CXCL11 (panels c and f) were measured by ELISA. Data are presented as mean±SEM, n = 7–8. (EPS) Click here for additional data file. […]
After this time, media was harvested and the concentrations of CXCR3 chemokines measured by ELISA. Data are presented as mean±SEM, n=4

[2] = system: human primary airway epithelial cells; assay: Release of CXCL9, CXCL10 and CXCL11 from human primary airway epithelial cells (ELISA); assay type: cell-based; conditions: for IC50 / EC50: Homo sapiens, Epithelial cell, pre-treated 1h; for IC50: pooled primary cells
Description: BEAS-2B cells (catalogue number CRL-9609) were purchased directly from American Type Culture Collection (Rockville, MD). Keratinocyte serum-free medium (K-SFM), bovine pituitary extract (BPE), and recombinant human epidermal growth factor (EGF) were purchased from Invitrogen (Paisley, UK). BEAS-2B cells were cultured in K-SFM containing 50 μg/ml BPE and 5 ng/ml EGF at 37°C in a humidified atmosphere comprising 5% (v/v) CO2 in air. Cells were cultured as monolayers in growth factor-free media for 24 h prior to stimulation. Human primary airway epithelial cells were cultured as monolayers from bronchial brushings from both male and female subjects (Table 1) and cultured in LHC-9 media (Invitrogen, Paisley, UK) in collagen (1% w/v) coated flasks. Samples were obtained from non-smokers, smokers and patients with COPD. […] The subjects were matched for age and smokers and COPD patients for smoking history (Table 1). All subjects gave informed written consent and the study was approved by the NRES London-Chelsea Research Ethics committee, study number 09/H0801/85.
as §1
Data are presented as mean ± SEM of ‘n’ independent determinations. Concentration-response curves were analysed by least-squares, non-linear iterative regression with the ‘Graphpad Prism’ curve fitting program (GraphPad software, San Diego, USA) and IC50 values were subsequently interpolated from curves of best-fit. Statistical differences were determined using the Kruskal–Wallis test followed by Dunn's multiple comparison test or a Wilcoxon signed rank test as appropriate. Values of P<0.05 were considered significant.
Media was harvested and the concentrations of CXCL9 (panels a and d), CXCL10 (panels b and e) and CXCL11 (panels c and f) were measured by ELISA. Data are presented as mean ± SEM, n = 10–13.

[3] = system: human primary airway epithelial cells; assay: IL-6 release from IFNγ + TNFα-stimulated human primary airway epithelial cells; assay type: cell-based
Description: In order to determine whether any of the inhibitory effects of the JAK inhibitors could be attributed to cell death, MTT assays were performed at the end of every experiment. […] In order to address this issue, the levels of IL-6 released from cells stimulated with IFNγ + TNFα were measured.

[4] = system: STAT-1; assay: STAT-1 DNA binding in BEAS-2B cells (TransAM); assay type: cell-based, human; conditions: IFNγ and IFNγ + TNFα stimulation
Description: STAT phosphorylation, nuclear translocation and DNA binding was determined using TransAM assays (Actif Motif, Rixensart, Belgium). Cells were treated with JAK inhibitors for 30 min prior to stimulation for 1h. Nuclear extracts were prepared using the Actif Motif assay reagents. Briefly, the nuclear extracts (10 μg) were incubated in DNA coated plates for 1h. After washing, antibodies supplied with the TransAM kit that were specific for the active forms of STAT1, STAT3, STAT5A and STAT5B were added to the wells and incubated for a further hour. The plates were washed and a secondary HRP-labelled anti-goat Ig antibody was added and the plates incubated for an hour. After washing, the assay was developed using the TMB substrate provided and the reaction stopped using 2N sulphuric acid. The plates were read at 450nm with a reference filter of 610nm. Data were then normalised to non-stimulated cells and calculated as fold change from baseline.
After 1 h, nuclear extracts of the cells were prepared and TransAM assays for STAT-1 (panel a) and STAT-3 (panel b) were performed. Data are presented as fold change from baseline ± SEM; n = 4.

[5] = system: BEAS-2B cells; assay: mRNA expression of CXCL9, CXCL10 and CXCL11 in BEAS-2B cells (Taqman RT-PCR); assay type: cell-based, human; conditions: BEAS-2b, pretreated 1h, IFNγ or IFNγ with TNFα for 4h
Description: Total RNA was extracted from cells and reverse transcribed, as described previously. Gene expression was determined by Taqman real-time PCR on a 7500 Real Time PCR system (Applied Biosystems, Life Technologies Ltd, Paisley, UK) using PCR Master Mix Reagent and ‘assays on demand’ (Applied Biosystems). HPRT1 gene expression was used as the housekeeping gene and data presented as δδCT relative to baseline.
Gene expression of CXCL9 (panels a and b), CXCL10 (panels c and d) and CXCL11 (panels e and f) were quantified by Taqman RT-PCR. Data are presented as fold change form stimulus ± SEM; n = 3 where 1 indicates the level of mRNA induced by IFNγ or IFNγ + TNFα in the absence of inhibitors.

[6] = system: MLK1; design: method as in Coe et al., 25; conditions: ATP at the Km; ref Coe et al., 25; cited from earlier work

`CCc1cc(O)ccc1-c1ccc2c(-c3nc4ccccc4[nH]3)n[nH]c2c1` [PF1367550, 4-(3-(1H-benzo[d]imidazol-2-yl)-1H-indazol-6-yl)-3-ethylphenol] gave an IC50 ([1]; inhibitor concomitant with IFNγ (10 ng/ml) 20h, read-out: IC50, release of CXCL9) of 10.3 ± 2.1 nM, an IC50 ([1]; inhibitor concomitant with IFNγ (10 ng/ml) 20h, read-out: IC50, release of CXCL10) of 16.6 ± 2.7 nM and an IC50 ([1]; inhibitor concomitant with IFNγ (10 ng/ml) 20h, read-out: IC50, release of CXCL11) of 16 ± 4.1 nM. It also gave an IC50 ([1]; inhibitor concomitant with IFNγ+TNFα (10 ng/ml) 20h, read-out: IC50, release of CXCL9) of 31.6 ± 13.4 nM, an IC50 ([1]; inhibitor concomitant with IFNγ+TNFα (10 ng/ml) 20h, read-out: IC50, release of CXCL10) of 146 ± 32.6 nM and an IC50 ([1]; inhibitor concomitant with IFNγ+TNFα (10 ng/ml) 20h, read-out: IC50, release of CXCL11) of 32 ± 8.7 nM. It also gave an IC50 ([2]; IFNγ (10ng/ml) 20h, read-out: IC50, release of CXCL9) of 8.4 ± 1.3 nM, an IC50 ([2]; IFNγ (10ng/ml) 20h, read-out: IC50, release of CXCL10) of 10.4 ± 1.7 nM and an IC50 ([2]; IFNγ (10ng/ml) 20h, read-out: IC50, release of CXCL11) of 7 ± 0.9 nM. The IC50 ([2]; IFNγ+TNFα (10ng/ml) 20h, read-out: IC50, release of CXCL9) was 17.6 ± 3 nM, the IC50 ([2]; IFNγ+TNFα (10ng/ml) 20h, read-out: IC50, release of CXCL10) was 24.3 ± 2.4 nM and the IC50 ([2]; IFNγ+TNFα (10ng/ml) 20h, read-out: IC50, release of CXCL11) was 14.5 ± 2.4 nM. For the same compound, the EC50 ([2]; primary cells from COPD patients, IFNγ (10 ng/ml) 20h, read-out: EC50, release of CXCL9) was 7.4 ± 1.3 nM, the EC50 ([2]; primary cells from COPD patients, IFNγ (10 ng/ml) 20h, read-out: EC50, release of CXCL10) was 7.1 ± 1.3 nM and the EC50 ([2]; primary cells from COPD patients, IFNγ (10 ng/ml) 20h, read-out: EC50, release of CXCL11) was 6.3 ± 1.4 nM. It also gave an EC50 ([2]; primary cells from COPD patients, IFNγ +TNFα (10 ng/ml) 20h, read-out: EC50, release of CXCL9) of 20.8 ± 4.8 nM, an EC50 ([2]; primary cells from COPD patients, IFNγ +TNFα (10 ng/ml) 20h, read-out: EC50, release of CXCL10) of 29.1 ± 3.5 nM and an EC50 ([2]; primary cells from COPD patients, IFNγ +TNFα (10 ng/ml) 20h, read-out: EC50, release of CXCL11) of 16.7 ± 4.1 nM. It also gave an EC50 ([2]; primary cells from non-smokers, IFNγ (10 ng/ml) 20h, read-out: EC50, release of CXCL9) of 9.73 ± 3.5 nM, an EC50 ([2]; primary cells from non-smokers, IFNγ (10 ng/ml) 20h, read-out: EC50, release of CXCL10) of 12.8 ± 5.6 nM and an EC50 ([2]; primary cells from non-smokers, IFNγ (10 ng/ml) 20h, read-out: EC50, release of CXCL11) of 8.5 ± 0.7 nM. The EC50 ([2]; primary cells from non-smokers, IFNγ +TNFα (10 ng/ml) 20h, read-out: EC50, release of CXCL9) was 14.1 ± 7.1 nM, the EC50 ([2]; primary cells from non-smokers, IFNγ +TNFα (10 ng/ml) 20h, read-out: EC50, release of CXCL10) was 20.3 ± 5.1 nM and the EC50 ([2]; primary cells from non-smokers, IFNγ +TNFα (10 ng/ml) 20h, read-out: EC50, release of CXCL11) was 13.7 ± 6.7 nM. It also gave an EC50 ([2]; primary cells from smokers, IFNγ (10 ng/ml) 20h, read-out: EC50, release of CXCL9) of 9 ± 3 nM, an EC50 ([2]; primary cells from smokers, IFNγ (10 ng/ml) 20h, read-out: EC50, release of CXCL10) of 12.3 ± 0.36 nM and an EC50 ([2]; primary cells from smokers, IFNγ (10 ng/ml) 20h, read-out: EC50, release of CXCL11) of 6.8 ± 1.9 nM. It also gave an EC50 ([2]; primary cells from smokers, IFNγ +TNFα (10 ng/ml) 20h, read-out: EC50, release of CXCL9) of 15.3 ± 4.8 nM, an EC50 ([2]; primary cells from smokers, IFNγ +TNFα (10 ng/ml) 20h, read-out: EC50, release of CXCL10) of 20.2 ± 3.6 nM and an EC50 ([2]; primary cells from smokers, IFNγ +TNFα (10 ng/ml) 20h, read-out: EC50, release of CXCL11) of 11.8 ± 2.9 nM. For the same compound, the “fold more potent than PF956980, CXCR3 chemokine release” value ([2]; pooled human primary airway epithelial cells) was ~ 80 fold, the “IC50 for IL-6 release, fold greater than for inhibition of CXCR3 chemokine release” value [3] was ~ 50 fold and the IC50 ([3]; Homo sapiens, Epithelial cell, IFNγ + TNFα, n = 7) was 800 ± 200 nM. The “effect on STAT-1 DNA binding” value [4] was “suppressed”, the “effect on expression of CXCL9, CXCL10 and CXCL11 (mRNA)” value [5] was “completely inhibited” and the IC50 [6] was 54 nM.

Source: publication PMC4474874, “Effect of JAK Inhibitors on Release of CXCL9, CXCL10 and CXCL11 from Human Airway Epithelial Cells” (PLoS ONE, 2015)
